According to US20150283152A1, “Levonorgestrel-Only-Composition For Optimized Oral Contraception With Defined Levonorgestrel Content, Dosage Regimen And Pharmaceutical Preparation” (NAARI AG, priority 2012, published 2015):

Experiments:
[1] = test system: New Zealand-rabbits; test: Pre-ovulatory repeated oral levonorgestrel, rate of fertilized eggs in rabbits (ovulation induced by PMSG/hCG); assay type: in vivo, rabbit; details: for % fertilized (cleaved) eggs: control 90.6
From the text: On the last day of LNG-administration, the ovulation was “forced” by intravenous (i.v.) injection of human chorionic gonadotropin (hCG). […] [table]

[2] = test system: Luteinizing Hormone (LH); test: Serum levels of Luteinizing Hormone in male castrated rats (radioimmunoassay); assay type: in vivo, rat; details: gonadectomized control 127.0 ± 11.0, p < 0.05
[3] = test system: women; details: without estrogen; cited from earlier work
[4] = test system: immature male Wistar-rats; test: Weight of gonads in immature male rats (antigonadotrophic effect); assay type: in vivo, rat; details: final control 873.5 ± 62.5, p < 0.05
From the text: The influence of levonorgestrel on the secretion of gonadotrophins from the pituitary can be estimated by recording the dose-effect relationships in reducing the weight of the gonads of immature male rats. [table]

[5] = test system: female paired Wistar-rats; test: Post-ovulatory subcutaneous levonorgestrel, fertility of female paired rats; assay type: in vivo, rat
Procedure: Whereas 20 mg/kg bodyweight (b.w.). […] [table]

[6] = Martinez F et al. 2012; cited from earlier work
[7] = total dosage 0.35 mg/animal p.o. over 3 days
[8] = total dosage 1.75 mg/animal p.o. over 3 days
[9] = s.c. days 1-4 p.i., total dose 0.2 mg/animal/4 days
[10] = s.c. days 1-4 p.i., total dose 2.0 mg/animal/4 days
[11] = s.c. once Day 1 p.i., total dose 4.0 mg/animal

## C#C[C@]1(O)CC[C@H]2[C@@H]3CCC4=CC(=O)CC[C@@H]4[C@H]3CC[C@@]21CC [levonorgestrel]
[1]; [7]
  Total no. of eggs vs. total no. of fertilized (cleaved) eggs: 92/78
  % fertilized (cleaved) eggs: 84.8%
[1]; [8]
  Total no. of eggs vs. total no. of fertilized (cleaved) eggs: 81/49
  % fertilized (cleaved) eggs: 60.5%
[1]; total dosage 5.25 mg/animal p.o. over 3 days
  % fertilized (cleaved) eggs: 54.5%
[2]; total dose 0.14 mg/animal/14 d s.c.
  Luteinizing Hormone ng/mL serum: 68.4 ± 15.4 ng/mL serum
[2]; total dose 1.40 mg/animal/14 d s.c.
  Luteinizing Hormone ng/mL serum: 2.2 ± 0.3 ng/mL serum
[3]
  daily dosage leading to non-acceptable bleeding irregularities: over 0.125 mg
[4]; total dose 0.14 mg/animal over 14 d s.c.
  Gonadal weight/mg Mean ± (S.E.M.): 579.7 ± 44.7 mg
[4]; total dose 0.42 mg/animal over 14 d s.c.
  Gonadal weight/mg Mean ± (S.E.M.): 385.7 ± 74.3 mg
[4]; total dose 1.40 mg/animal over 14 d s.c.
  Gonadal weight/mg Mean ± (S.E.M.): 180.8 ± 105.5 mg
[5]; [9]
  No. of treated animals vs. no. of intact pregnancies: 10/9
  Pregnancy inhibition (%): 10%
[5]; [10]
  No. of treated animals vs. no. of intact pregnancies: 10/0
  Pregnancy inhibition (%): 100%
[5]; [11]
  No. of treated animals vs. no. of intact pregnancies: 12/12
  Pregnancy inhibition (%): 0%
[6]
  risk of venous thromboembolism (VTE): currently the safest progestin
